Test results reported in US20050112573A1, “Method of detecting toxic substance” (priority 2001, published 2005).

Tested on: yeast genes (level of expressed mRNA)
Assay: DNA chip analysis of expressed mRNA of yeast genes after 2 h culture with a toxic chemical substance
Format: cell-based, Saccharomyces cerevisiae S288C
How it was run: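 S. cerevisiae S288C grown at 25° C in YPD; toxicant added at log phase at growth-inhibitory, non-lethal levels for 2 h, untreated cells as control. Poly(A) mRNA reverse-transcribed with Cy3/Cy5-dUTP, hybridized to whole-genome chip at 65° C >12 h; value is fluorescence ratio versus untreated.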

## C[S+](C)[O-] [(15), dimethylsulfoxide]
Gene YGR293C
  The level of expressed mRNA in the presence of chemical substance/absence: YGR293C: 0.7
Gene YHL006C
  The level of expressed mRNA in the presence of chemical substance/absence: YHL006C: 0.6
Gene YHL021C
  The level of expressed mRNA in the presence of chemical substance/absence: YHL021C: 1.2
Gene YHL037C
  The level of expressed mRNA in the presence of chemical substance/absence: YHL037C: 0.8
Gene YHR037W
  level of expressed mRNA in the presence of chemical substance/in its absence: 1.1
Gene YHR083W
  The level of expressed mRNA in the presence of chemical substance/absence: YHR083W: 1.3
Gene YHR092C
  level of expressed mRNA in the presence of chemical substance/in its absence: 0.2
Gene YHR095W
  The level of expressed mRNA in the presence of chemical substance/absence: YHR095W: 0.8
Gene YHR105W
  The level of expressed mRNA in the presence of chemical substance/absence: YHR105W: 0.9
Gene YHR134W
  The level of expressed mRNA in the presence of chemical substance/absence: YHR134W: 1.0
Gene YHR137W
  level of expressed mRNA in the presence of chemical substance/in its absence: 2.8
Gene YHR180W
  The level of expressed mRNA in the presence of chemical substance/absence: YHR180W: 0.8
Gene YHR181W
  The level of expressed mRNA in the presence of chemical substance/absence: YHR181W: 1.4
Gene YHR190W
  level of expressed mRNA in the presence of chemical substance/in its absence: 1.3
Gene YIL033C
  level of expressed mRNA in the presence of chemical substance/in its absence: 1.0
Gene YIL108W
  The level of expressed mRNA in the presence of chemical substance/absence: YIL108W: 1.8
Gene YIL127C
  The level of expressed mRNA in the presence of chemical substance/absence: YIL127C: 0.7
Gene YIL154C
  level of expressed mRNA in the presence of chemical substance/in its absence: 4.3
Gene YIL165C
  The level of expressed mRNA in the presence of chemical substance/absence: YIL165C: 0.8
Gene YIL167W
  level of expressed mRNA in the presence of chemical substance/in its absence: 0.6
Gene YIR035C
  level of expressed mRNA in the presence of chemical substance/in its absence: 1.4
Gene YJL017W
  The level of expressed mRNA in the presence of chemical substance/absence: YJL017W: 1.1
Gene YJL032W
  The level of expressed mRNA in the presence of chemical substance/absence: YJL032W: 1.0
Gene YJL037W
  The level of expressed mRNA in the presence of chemical substance/absence: YJL037W: 1.6
Gene YJL049W
  The level of expressed mRNA in the presence of chemical substance/absence: YJL049W: 0.8
Gene YJL088W
  level of expressed mRNA in the presence of chemical substance/in its absence: 5.7
Gene YJL097W
  The level of expressed mRNA in the presence of chemical substance/absence: YJL097W: 1.1
Gene YJL132W
  level of expressed mRNA in the presence of chemical substance/in its absence: 1.1
Gene YJL196C
  level of expressed mRNA in the presence of chemical substance/in its absence: 0.6
Gene YJR030C
  The level of expressed mRNA in the presence of chemical substance/absence: YJR030C: 0.8
Gene YJR044C
  The level of expressed mRNA in the presence of chemical substance/absence: YJR044C: 1.6
Gene YJR142W
  level of expressed mRNA in the presence of chemical substance/in its absence: 0.6
Gene YJR148W
  level of expressed mRNA in the presence of chemical substance/in its absence: 3.2
Gene YJR159W
  level of expressed mRNA in the presence of chemical substance/in its absence: 2.3
Gene YKL051W
  The level of expressed mRNA in the presence of chemical substance/absence: YKL051W: 1.5
Gene YKL059C
  The level of expressed mRNA in the presence of chemical substance/absence: YKL059C: 1.1
Gene YKL067W
  level of expressed mRNA in the presence of chemical substance/in its absence: 1.1
Gene YKL090W
  The level of expressed mRNA in the presence of chemical substance/absence: YKL090W: 0.8
Gene YKL094W
  The level of expressed mRNA in the presence of chemical substance/absence: YKL094W: 1.0
Gene YKL097C
  The level of expressed mRNA in the presence of chemical substance/absence: YKL097C: 0.8
Gene YKL100C
  The level of expressed mRNA in the presence of chemical substance/absence: YKL100C: 1.7
Gene YKR039W
  level of expressed mRNA in the presence of chemical substance/in its absence: 1.7
Gene YKR040C
  The level of expressed mRNA in the presence of chemical substance/absence: YKR040C: 1.1
Gene YLR097C
  The level of expressed mRNA in the presence of chemical substance/absence: YLR097C: 0.9
Gene YLR142W
  level of expressed mRNA in the presence of chemical substance/in its absence: 1.6
Gene YLR180W
  level of expressed mRNA in the presence of chemical substance/in its absence: 2.5
Gene YLR226W
  The level of expressed mRNA in the presence of chemical substance/absence: YLR226W: 1.3
Gene YLR273C
  level of expressed mRNA in the presence of chemical substance/in its absence: 2.6
Gene YLR300W
  level of expressed mRNA in the presence of chemical substance/in its absence: 2.7
Gene YLR307W
  level of expressed mRNA in the presence of chemical substance/in its absence: 3.9
Gene YLR338W
  The level of expressed mRNA in the presence of chemical substance/absence: YLR338W: 1.5
Gene YLR339C
  The level of expressed mRNA in the presence of chemical substance/absence: YLR339C: 1.0
Gene YLR392C
  The level of expressed mRNA in the presence of chemical substance/absence: YLR392C: 0.5
Gene YLR415C
  The level of expressed mRNA in the presence of chemical substance/absence: YLR415C: 1.0
Gene YLR427W
  The level of expressed mRNA in the presence of chemical substance/absence: YLR427W: 0.8
Gene YML013W
  The level of expressed mRNA in the presence of chemical substance/absence: YML013W: 2.2
Gene YML029W
  The level of expressed mRNA in the presence of chemical substance/absence: YML029W: 0.8
Gene YML041C
  The level of expressed mRNA in the presence of chemical substance/absence: YML041C: 1.0
Gene YML079W
  The level of expressed mRNA in the presence of chemical substance/absence: YML079W: 0.3
Gene YML110C
  level of expressed mRNA in the presence of chemical substance/in its absence: 1.3
Gene YML118W
  The level of expressed mRNA in the presence of chemical substance/absence: YML118W: 2.2
Gene YMR068W
  The level of expressed mRNA in the presence of chemical substance/absence: YMR068W: 2.2
Gene YMR071C
  The level of expressed mRNA in the presence of chemical substance/absence: YMR071C: 0.8
Gene YMR105C
  level of expressed mRNA in the presence of chemical substance/in its absence: 0.9
Gene YMR114C
  The level of expressed mRNA in the presence of chemical substance/absence: YMR114C: 1.2
Gene YMR115W
  The level of expressed mRNA in the presence of chemical substance/absence: YMR115W: 1.2
Gene YMR160W
  The level of expressed mRNA in the presence of chemical substance/absence: YMR160W: 1.5
Gene YMR189W
  level of expressed mRNA in the presence of chemical substance/in its absence: 5.6
Gene YMR258C
  The level of expressed mRNA in the presence of chemical substance/absence: YMR258C: 0.6
Gene YMR271C
  level of expressed mRNA in the presence of chemical substance/in its absence: 0.6
Gene YMR272C
  level of expressed mRNA in the presence of chemical substance/in its absence: 1.1
Gene YMR296C
  level of expressed mRNA in the presence of chemical substance/in its absence: 6.7
Gene YNL012W
  level of expressed mRNA in the presence of chemical substance/in its absence: 1.6
Gene YNL026W
  The level of expressed mRNA in the presence of chemical substance/absence: YNL026W: 0.8
Gene YNL037C
  level of expressed mRNA in the presence of chemical substance/in its absence: 0.9
Gene YNL045W
  level of expressed mRNA in the presence of chemical substance/in its absence: 0.8
Gene YNL058C
  The level of expressed mRNA in the presence of chemical substance/absence: YNL058C: 2.2
Gene YNL063W
  The level of expressed mRNA in the presence of chemical substance/absence: YNL063W: 0.7
Gene YNL104C
  level of expressed mRNA in the presence of chemical substance/in its absence: 2.5
Gene YNL106C
  level of expressed mRNA in the presence of chemical substance/in its absence: 3.3
Gene YNL130C
  level of expressed mRNA in the presence of chemical substance/in its absence: 2.5
Gene YNL169C
  level of expressed mRNA in the presence of chemical substance/in its absence: 3.4
Gene YNL176C
  The level of expressed mRNA in the presence of chemical substance/absence: YNL176C: 0.8
Gene YNL181W
  The level of expressed mRNA in the presence of chemical substance/absence: YNL181W: 1.0
Gene YNL191W
  The level of expressed mRNA in the presence of chemical substance/absence: YNL191W: 1.0
Gene YNL194C
  The level of expressed mRNA in the presence of chemical substance/absence: YNL194C: 0.5
Gene YNL200C
  The level of expressed mRNA in the presence of chemical substance/absence: YNL200C: 0.8
Gene YNL212W
  The level of expressed mRNA in the presence of chemical substance/absence: YNL212W: 0.9
Gene YNL231C
  level of expressed mRNA in the presence of chemical substance/in its absence: 0.9
Gene YNL253W
  The level of expressed mRNA in the presence of chemical substance/absence: YNL253W: 0.5
Gene YNL265C
  The level of expressed mRNA in the presence of chemical substance/absence: YNL265C: 0.6
Gene YNL276C
  The level of expressed mRNA in the presence of chemical substance/absence: YNL276C: 0.5
Gene YNL322C
  level of expressed mRNA in the presence of chemical substance/in its absence: 3.7
Gene YNR002C
  level of expressed mRNA in the presence of chemical substance/in its absence: 1.0
Gene YNR019W
  level of expressed mRNA in the presence of chemical substance/in its absence: 1.6
Gene YNR033W
  level of expressed mRNA in the presence of chemical substance/in its absence: 1.3
Gene YNR051C
  The level of expressed mRNA in the presence of chemical substance/absence: YNR051C: 1.2
Gene YNR059W
  level of expressed mRNA in the presence of chemical substance/in its absence: 1.0
Gene YOL026C
  The level of expressed mRNA in the presence of chemical substance/absence: YOL026C: 0.9
Gene YOL030W
  The level of expressed mRNA in the presence of chemical substance/absence: YOL030W: 0.9
Gene YOL058W
  level of expressed mRNA in the presence of chemical substance/in its absence: 2.7
Gene YOL126C
  level of expressed mRNA in the presence of chemical substance/in its absence: 1.4
Gene YOL143C
  level of expressed mRNA in the presence of chemical substance/in its absence: 1.0
Gene YOL153C
  level of expressed mRNA in the presence of chemical substance/in its absence: 1.2
Gene YOL157C
  level of expressed mRNA in the presence of chemical substance/in its absence: 1.1
Gene YOR022C
  The level of expressed mRNA in the presence of chemical substance/absence: YOR022C: 0.8
Gene YOR087W
  The level of expressed mRNA in the presence of chemical substance/absence: YOR087W: 0.8
Gene YOR088W
  The level of expressed mRNA in the presence of chemical substance/absence: YOR088W: 0.8
Gene YOR099W
  level of expressed mRNA in the presence of chemical substance/in its absence: 1.5
Gene YOR130C
  level of expressed mRNA in the presence of chemical substance/in its absence: 1.0
Gene YOR136W
  level of expressed mRNA in the presence of chemical substance/in its absence: 1.2
Gene YOR138C
  The level of expressed mRNA in the presence of chemical substance/absence: YOR138C: 1.0
Gene YOR155C
  The level of expressed mRNA in the presence of chemical substance/absence: YOR155C: 0.9
Gene YOR253W
  The level of expressed mRNA in the presence of chemical substance/absence: YOR253W: 1.1
